Measurements taken from article PMC9501377, “New Diarylamine KV10.1 Inhibitors and Their Anticancer Potential” (Pharmaceutics, 2022).

Tests used:
[1] = tested on: tumour spheroids of Colo357 cells; design: method as in PMID 33808994; conditions: cited from earlier work
KV10.1 (Eag1) = target: T1, KV10.1 (Eag1) (Homo sapiens, UniProt O95259); test: Whole-cell patch-clamp on stably transfected HEK-293 cells expressing KV10.1; assay type: cell-based; conditions: HEK293; 50 μM, HEK-293 cells, patch-clamp, mean ± SEM
T1 construct: expressed in transfected cells; host or cells: HEK-293 (stably transfected)
T1 sequence (O95259 1-962 isoform O95259-2): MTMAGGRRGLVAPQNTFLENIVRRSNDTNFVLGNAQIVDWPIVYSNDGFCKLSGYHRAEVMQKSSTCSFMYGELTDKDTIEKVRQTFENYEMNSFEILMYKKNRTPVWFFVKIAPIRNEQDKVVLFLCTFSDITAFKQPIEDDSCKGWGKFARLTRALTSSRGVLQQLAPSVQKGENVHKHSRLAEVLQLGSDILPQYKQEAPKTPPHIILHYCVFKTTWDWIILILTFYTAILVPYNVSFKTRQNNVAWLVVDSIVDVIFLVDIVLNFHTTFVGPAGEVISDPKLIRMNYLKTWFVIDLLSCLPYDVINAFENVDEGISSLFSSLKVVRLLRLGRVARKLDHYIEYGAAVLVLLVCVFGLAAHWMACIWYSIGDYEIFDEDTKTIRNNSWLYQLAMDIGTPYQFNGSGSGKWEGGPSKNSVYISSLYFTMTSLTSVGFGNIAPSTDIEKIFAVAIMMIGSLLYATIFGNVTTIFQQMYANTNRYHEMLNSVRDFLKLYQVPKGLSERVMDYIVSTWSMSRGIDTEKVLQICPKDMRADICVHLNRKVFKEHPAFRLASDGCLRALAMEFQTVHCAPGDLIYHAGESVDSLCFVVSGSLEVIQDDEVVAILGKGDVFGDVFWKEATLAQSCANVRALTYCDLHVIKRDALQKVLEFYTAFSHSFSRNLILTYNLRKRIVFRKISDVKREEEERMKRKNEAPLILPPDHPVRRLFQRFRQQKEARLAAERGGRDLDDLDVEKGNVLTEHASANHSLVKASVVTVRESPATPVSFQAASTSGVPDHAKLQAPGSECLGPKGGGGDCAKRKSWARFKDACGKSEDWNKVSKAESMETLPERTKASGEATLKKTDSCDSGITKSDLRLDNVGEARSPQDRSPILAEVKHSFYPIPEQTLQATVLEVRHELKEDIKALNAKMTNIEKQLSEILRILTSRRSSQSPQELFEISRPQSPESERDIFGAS
Procedure: For whole-cell patch-clamp measurements, stably transfected HEK-293 cells expressing KV10.1 [26, 27, 28] were grown in DMEM with 10% FCS and 300 µg/mL Zeocin on glass coverslips coated with fibronectin. All experiments were conducted at room temperature under perfusion by gravity with extracellular solution (160 mM NaCl, 2.5 mM KCl, 2 mM CaCl2, 1 mM MgCl2, 10 mM Hepes pH 7.4 with NaOH, 8 mM glucose). Pipettes were made from #1 glass capillaries (WPI) and had 1–3 MΩ resistance. The intracellular solution contained 100 mM KCl, 45 mM N-methyl-D-glucamine, 10 mM 1,2-bis(o-aminophenoxy)ethane-N,N,N′,N′-tetraacetic acid (BAPTA), 10 mM Hepes pH 7.35. Stimulation was applied and data were acquired with an EPC10 Plus amplifier (HEKA Elektronik) controlled with Patch Master software. Compounds were applied with an 8-channel fast solution exchanger (ALA). Compounds were prepared to a stock concentration of 10 mM in DMSO. The control solution contained 0.5% DMSO. Stimuli consisted of 500 ms depolarizations to +40 mV.
All electrophysiological data are presented as means ± SEM of n ≥ 3 independent experiments unless otherwise indicated. Oocyte data were analysed using pClamp Clampfit 10.4 (Molecular Devices, Downingtown, PA, USA) and OriginPro 9 (Originlab, Northampton, MA, USA) or GraphPad Prism 8 software (GraphPad Software, Inc., San Diego, CA, USA). Patch-clamp data analysis was performed using FitMaster (HEKA Electronics), IgorPro (Wavemetrics, Inc., Lake Oswego, OR, USA) and GraphPad Prism 9 (GraphPad Software, Inc., San Diego, CA, USA). The Dunnett test and one-way ANOVA were performed to calculate the significance of the induced inhibition compared to the control (p < 0.05).

Row | SMILES | apoptosis in tumour spheroids of Colo357 cells [1] | inhibition at 50 µM (KV10.1 (Eag1)) [%]
1 | CN(C)CCCOc1ccc(Nc2ccc(C(F)(F)F)cc2[N+](=O)[O-])cc1 [Compound 2] | induced significant apoptosis | 
2 | O=[N+]([O-])c1cc(C(F)(F)F)ccc1Nc1ccc(OCC(O)CN2CCC(O)(COc3ccc(Cl)c(Cl)c3)CC2)cc1 (stereo not shown) [Compound 16a, 4-((3,4-Dichlorophenoxy)methyl)-1-(2-hydroxy-3-(4-((2-nitro-4-(trifluoromethyl)phenyl)amino)phenoxy)propyl)piperidin-4-ol] |  | 44.6 ± 8.6
3 | COc1ccc(OCC2(O)CCN(CC(O)COc3ccc(Nc4ccc(C(F)(F)F)cc4[N+](=O)[O-])cc3)CC2)cc1 (stereo not shown) [Compound 16b, 1-(2-Hydroxy-3-(4-((2-nitro-4-(trifluoromethyl)phenyl)amino)phenoxy)propyl)-4-((4-methoxyphenoxy)methyl)piperidin-4-ol] |  | 60.7 ± 9.6
4 | O=C(NC1CCN(CC(O)COc2ccc(Nc3ccc(C(F)(F)F)cc3[N+](=O)[O-])cc2)CC1)c1ccc(Cl)c(Cl)c1 (stereo not shown) [Compound 16c, 3,4-Dichloro-N-(1-(2-hydroxy-3-(4-((2-nitro-4-(trifluoromethyl)phenyl)amino)phenoxy)propyl)piperidin-4-yl)benzamide] |  | 26.8 ± 10.1
